Measured values from PubChem BioAssay (NCI).
Several values for one entry are separate records, joined by “and”; a condition that tells them apart may be missing. Equal values may be shown once.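 Step 1: Grow cells in 96-well plates. Step 2: Expose to compound for 48 hours at 5 concentrations. Step 3: Interpolate endpoints linearly; if unreached, use highest concentration. At the GI50, growth is halved. TGI denotes the concentration required for complete inhibition of growth.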

Assays:
Assay in all cases: DTP human tumour cell line panel, 48 h
IGROV1 ovarian = system: IGROV1 ovarian
NCI-H460 lung = system: NCI-H460 lung
MOLT-4 leukemia = system: MOLT-4 leukemia
T-47D breast = system: T-47D breast
SW-620 colon = system: SW-620 colon
SR leukemia = system: SR leukemia
HS 578T breast = system: HS 578T breast
UACC-257 melanoma = system: UACC-257 melanoma
NCI/ADR-RES ovarian = system: NCI/ADR-RES ovarian
UACC-62 melanoma = system: UACC-62 melanoma
BT-549 breast = system: BT-549 breast
PC-3 prostate = system: PC-3 prostate
OVCAR-8 ovarian = system: OVCAR-8 ovarian
RPMI-8226 leukemia = system: RPMI-8226 leukemia
SK-MEL-5 melanoma = system: SK-MEL-5 melanoma
UO-31 renal = system: UO-31 renal
TK-10 renal = system: TK-10 renal
OVCAR-5 ovarian = system: OVCAR-5 ovarian
SNB-19 CNS = system: SNB-19 CNS
HOP-62 NSCLC = system: HOP-62 NSCLC
SK-MEL-28 melanoma = system: SK-MEL-28 melanoma
RXF 393 renal = system: RXF 393 renal
OVCAR-4 ovarian = system: OVCAR-4 ovarian
ACHN renal = system: ACHN renal
SF-539 CNS = system: SF-539 CNS
K-562 leukemia = system: K-562 leukemia
SN12C renal = system: SN12C renal
SK-OV-3 ovarian = system: SK-OV-3 ovarian
HCC-2998 colon = system: HCC-2998 colon
MALME-3M melanoma = system: MALME-3M melanoma
HOP-92 NSCLC = system: HOP-92 NSCLC
NCI-H23 lung = system: NCI-H23 lung
HCT-15 colon = system: HCT-15 colon
MDA-MB-435 = system: MDA-MB-435
786-0 renal = system: 786-0 renal
MDA-MB-231 breast = system: MDA-MB-231 breast
MDA-N = system: MDA-N
KM12 colon = system: KM12 colon
U251 CNS = system: U251 CNS
M14 melanoma = system: M14 melanoma
A498 renal = system: A498 renal
OVCAR-3 ovarian = system: OVCAR-3 ovarian
A549 NSCLC = system: A549 NSCLC
SF-295 CNS = system: SF-295 CNS
HT29 colon = system: HT29 colon
LOX IMVI melanoma = system: LOX IMVI melanoma
CCRF-CEM leukemia = system: CCRF-CEM leukemia
NCI-H522 lung = system: NCI-H522 lung
SF-268 CNS = system: SF-268 CNS
NCI-H226 lung = system: NCI-H226 lung
MCF7 breast = system: MCF7 breast
EKVX NSCLC = system: EKVX NSCLC
CAKI-1 renal = system: CAKI-1 renal
DU-145 prostate = system: DU-145 prostate
COLO 205 colon = system: COLO 205 colon
HL-60(TB) leukemia = system: HL-60(TB) leukemia
SK-MEL-2 melanoma = system: SK-MEL-2 melanoma
HCT-116 colon = system: HCT-116 colon
SNB-75 CNS = system: SNB-75 CNS

## Cc1cccc(/C=N/NC(=S)N2CCCC2)n1
IGROV1 ovarian
  GI50: 415 nM
  TGI: > 100000 nM
NCI-H460 lung
  TGI: > 42000 nM
MOLT-4 leukemia
  TGI: > 100000 nM
T-47D breast
  GI50: 267 nM
  TGI: 7680 nM
SW-620 colon
  GI50: 352 nM
  TGI: > 100000 nM
SR leukemia
  GI50: 150 nM
  TGI: 876 nM
HS 578T breast
  TGI: > 100000 nM
UACC-257 melanoma
  TGI: 9510 nM and 12100 nM
NCI/ADR-RES ovarian
  GI50: 319 nM
  TGI: 6930 nM and 4890 nM
UACC-62 melanoma
  GI50: 587 nM
  TGI: 2800 nM and 1000 nM
BT-549 breast
  GI50: 3020 nM
  TGI: > 100000 nM
PC-3 prostate
  GI50: 581 nM
OVCAR-8 ovarian
  GI50: 624 nM
  TGI: > 100000 nM
RPMI-8226 leukemia
  GI50: 426 nM and 322 nM
  TGI: > 100000 nM
SK-MEL-5 melanoma
  TGI: 823 nM
UO-31 renal
  GI50: 748 nM
  TGI: 4190 nM
TK-10 renal
  GI50: 4820 nM
  TGI: 1350 nM
OVCAR-5 ovarian
  GI50: 2410 nM
SNB-19 CNS
  GI50: 1400 nM
  TGI: > 34600 nM
HOP-62 NSCLC
  GI50: 2170 nM
  TGI: 942 nM
SK-MEL-28 melanoma
  GI50: 1420 nM
  TGI: > 100000 nM
RXF 393 renal
  GI50: 2090 nM
OVCAR-4 ovarian
  TGI: 6950 nM
ACHN renal
  GI50: 1440 nM
SF-539 CNS
  GI50: 753 nM
K-562 leukemia
  GI50: 170 nM
  TGI: > 100000 nM
SN12C renal
  GI50: 719 nM
SK-OV-3 ovarian
  TGI: > 100000 nM
HCC-2998 colon
  GI50: 102 nM
  TGI: 920 nM
MALME-3M melanoma
  GI50: 1000 nM
  TGI: 5180 nM and 783 nM
HOP-92 NSCLC
  GI50: 536 nM
NCI-H23 lung
  GI50: 401 nM
  TGI: 13400 nM
HCT-15 colon
  GI50: 586 nM
  TGI: > 100000 nM
MDA-MB-435
  GI50: 1110 nM
  TGI: > 100000 nM
786-0 renal
  GI50: 2450 nM
  TGI: 2850 nM
MDA-MB-231 breast
  GI50: 1140 nM
MDA-N
  GI50: 1910 nM
  TGI: > 26100 nM
KM12 colon
  GI50: 880 nM and 322 nM
  TGI: > 100000 nM
U251 CNS
  GI50: 821 nM
  TGI: > 100000 nM
M14 melanoma
  GI50: 392 nM
  TGI: 2640 nM and 485 nM
A498 renal
  GI50: 7220 nM
  TGI: 5610 nM
OVCAR-3 ovarian
  GI50: 280 nM
  TGI: 843 nM and 84.8 nM
A549 NSCLC
  GI50: 2500 nM
  TGI: > 100000 nM
SF-295 CNS
  GI50: 1080 nM
  TGI: 4240 nM
HT29 colon
  GI50: 4490 nM
  TGI: > 100000 nM
LOX IMVI melanoma
  TGI: > 41400 nM
CCRF-CEM leukemia
  GI50: 65.9 nM
  TGI: 850 nM
NCI-H522 lung
  TGI: > 100000 nM
SF-268 CNS
  GI50: 2290 nM
NCI-H226 lung
  GI50: 266 nM
  TGI: 7730 nM and 830 nM
MCF7 breast
  GI50: 169 nM
EKVX NSCLC
  GI50: 3180 nM
CAKI-1 renal
  GI50: 3240 nM
  TGI: 1160 nM
DU-145 prostate
  GI50: 980 nM
COLO 205 colon
  GI50: 193 nM
HL-60(TB) leukemia
  GI50: 236 nM
  TGI: 872 nM

## O=c1[nH]nc(-c2ccccc2)n1/N=C\c1ccccc1
NCI-H460 lung
  TGI: > 100000 nM
MOLT-4 leukemia
  TGI: > 100000 nM
T-47D breast
  TGI: > 100000 nM
SW-620 colon
  TGI: > 100000 nM
SR leukemia
  TGI: > 100000 nM
HS 578T breast
  TGI: > 100000 nM
UACC-257 melanoma
  TGI: > 100000 nM
NCI/ADR-RES ovarian
  TGI: > 100000 nM
UACC-62 melanoma
  TGI: > 100000 nM
BT-549 breast
  TGI: > 100000 nM
PC-3 prostate
  TGI: > 100000 nM
OVCAR-8 ovarian
  TGI: > 100000 nM
RPMI-8226 leukemia
  TGI: > 100000 nM
SK-MEL-5 melanoma
  TGI: > 100000 nM
UO-31 renal
  TGI: > 100000 nM
TK-10 renal
  TGI: > 100000 nM
OVCAR-5 ovarian
  TGI: > 100000 nM
HOP-62 NSCLC
  TGI: > 100000 nM
SK-MEL-28 melanoma
  TGI: > 100000 nM
RXF 393 renal
  TGI: > 100000 nM
SK-MEL-2 melanoma
  TGI: > 100000 nM
OVCAR-4 ovarian
  TGI: > 100000 nM
ACHN renal
  TGI: > 100000 nM
SF-539 CNS
  TGI: > 100000 nM
K-562 leukemia
  TGI: > 100000 nM
SN12C renal
  TGI: > 100000 nM
HCC-2998 colon
  TGI: > 100000 nM
MALME-3M melanoma
  TGI: > 100000 nM
HOP-92 NSCLC
  TGI: > 100000 nM
NCI-H23 lung
  TGI: > 100000 nM
HCT-15 colon
  TGI: > 100000 nM
MDA-MB-435
  TGI: > 100000 nM
786-0 renal
  TGI: > 100000 nM
MDA-MB-231 breast
  TGI: > 100000 nM
MDA-N
  TGI: > 100000 nM
KM12 colon
  TGI: > 100000 nM
U251 CNS
  TGI: > 100000 nM
A498 renal
  TGI: > 100000 nM
OVCAR-3 ovarian
  TGI: > 100000 nM
A549 NSCLC
  TGI: > 100000 nM
SF-295 CNS
  TGI: > 100000 nM
HT29 colon
  TGI: > 100000 nM
LOX IMVI melanoma
  TGI: > 100000 nM
HCT-116 colon
  TGI: > 100000 nM
CCRF-CEM leukemia
  TGI: > 100000 nM
NCI-H522 lung
  TGI: > 100000 nM
SF-268 CNS
  TGI: > 100000 nM
NCI-H226 lung
  TGI: > 100000 nM
MCF7 breast
  TGI: > 100000 nM
EKVX NSCLC
  TGI: > 100000 nM
CAKI-1 renal
  TGI: > 100000 nM
DU-145 prostate
  TGI: > 100000 nM
COLO 205 colon
  TGI: > 100000 nM
SNB-75 CNS
  TGI: > 100000 nM
HL-60(TB) leukemia
  TGI: > 100000 nM
